In PubChem BioAssay (NCI):
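Five concentrations, 48 hours, 96-well plates. At the GI50, growth is halved. TGI marks complete inhibition of growth.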

Tests used:
Experiment in all cases: NCI anticancer screen, dose series, 48 h
[1] = system: RXF 393 renal
[2] = system: HOP-92 NSCLC
[3] = system: SK-MEL-5 melanoma
[4] = system: HL-60(TB) leukemia
[5] = system: SF-539 CNS
[6] = system: COLO 205 colon
[7] = system: MOLT-4 leukemia
[8] = system: HOP-18 NSCLC
[9] = system: DMS 273 small cell lung
[10] = system: M19-MEL melanoma
[11] = system: DMS 114 small cell lung
[12] = system: NCI/ADR-RES ovarian

Compound | TGI [1] | TGI [2] | TGI [3] | TGI [4] | TGI [5] | TGI [6] | TGI [7] | TGI [8] | TGI [9] | TGI [10] | TGI [11] | GI50 [1] | GI50 [2] | GI50 [3] | GI50 [4] | GI50 [5] | GI50 [6] | GI50 [7] | GI50 [12] | TGI [12]
COC1OC(C)C(OC(=O)C(C)(C)C)C(C)(O)C1O (centres undefined) | > 100 µM | > 100 µM | > 100 µM | > 100 µM | > 100 µM | > 100 µM | > 100 µM | > 100 µM | > 100 µM | > 100 µM | – | – | – | – | – | – | – | – | – | –
CC(=O)Nc1ccc(/C=c2\sc3nnc(/C=C/c4ccccc4)n3c2=O)cc1 | > 50 µM | – | > 50 µM | > 50 µM | > 50 µM | > 50 µM | > 50 µM | > 50 µM | > 50 µM | > 50 µM | > 50 µM | – | – | – | – | – | – | – | – | –
CSc1s[s+]c(SC)c1[O-] | 41.4 µM | > 100 µM | > 100 µM | 47.1 µM | 43.2 µM | 68.8 µM | 48.2 µM | > 100 µM | > 100 µM | 29.5 µM | 34.6 µM | – | – | – | – | – | – | – | – | –
O=C1C=C(Br)C(=O)C(Br)=C1 | > 100 µM | > 100 µM | > 100 µM | 54.9 µM | > 100 µM | > 100 µM | > 86.2 µM | > 100 µM | > 100 µM | > 89.6 µM | > 100 µM | – | – | – | – | – | – | – | – | –
C=C(CO)CC(O)c1ccccc1 (centres undefined) | > 100 µM | > 100 µM | > 100 µM | > 100 µM | > 100 µM | > 100 µM | > 100 µM | – | > 100 µM | > 100 µM | > 100 µM | – | – | – | – | – | – | – | – | –
Cc1ccc(C(=O)/C=C/c2ccccc2Cl)cc1 | – | 63.5 µM | 38.5 µM | 42.8 µM | 38.9 µM | 47.2 µM | 56.1 µM | 76.1 µM | 29.4 µM | 33.5 µM | 35.5 µM | – | – | – | – | – | – | – | – | –
CN/N=C(\C)CC(=O)Nc1cccc(Cl)c1C | > 100 µM | > 100 µM | > 100 µM | > 100 µM | > 100 µM | > 100 µM | > 100 µM | > 100 µM | > 100 µM | > 100 µM | > 100 µM | – | – | – | – | – | – | – | – | –
O=C(O)/C(O)=C1/C=C(c2ccccc2)c2ccccc21 | 35.6 µM | 34.8 µM | 34 µM | 45.6 µM | 82.3 µM | 31.9 µM | 43.8 µM | 47.4 µM | 33.1 µM | 60.1 µM | 37.6 µM | – | – | – | – | – | – | – | – | –
CC1CC2C3CC(F)C4=CC(=O)C=CC4(C)C3(F)C(O)CC2(C)C1(O)C(=O)CO (centres undefined) | > 100 µM | > 100 µM | > 100 µM | > 100 µM | > 100 µM | > 100 µM | > 100 µM | – | > 100 µM | > 100 µM | > 100 µM | – | – | – | – | – | – | – | – | –
CS(=O)(=O)c1ccc(C(F)(F)F)cc1NC(=O)Nc1cnc(Oc2ccc(-c3cc(Cl)cnc3N)cc2)nc1 | 4.61 µM | 5.12 µM | 3.87 µM | 5.75 µM | 4.96 µM | 4.77 µM | 6.53 µM | – | – | – | – | 1.79 µM | 1.75 µM | 1.87 µM | 2.63 µM | 1.94 µM | 1.98 µM | 2.12 µM | 2.92 µM | > 31 µM
CN(C)CC1(C)CC/C(=C\c2ccc3c(c2)OCO3)C1=O (centres undefined) | > 100 µM | > 100 µM | > 100 µM | – | > 100 µM | > 100 µM | > 100 µM | > 100 µM | > 100 µM | > 100 µM | > 100 µM | – | – | – | – | – | – | – | – | –
CCCCCN(CCCCC)C(=O)[C@@H](CCC(=O)OCc1ccccc1)NC(=O)c1cc2ccccc2[nH]1 | > 100 µM | > 100 µM | – | – | > 100 µM | > 100 µM | – | > 100 µM | > 100 µM | – | > 100 µM | – | – | – | – | – | – | – | – | –
O=[N+]([O-])c1ccc2nc(N/N=C/c3ccc(O)cc3)sc2c1 | 66.9 µM | 8.96 µM | 11.1 µM | 10.6 µM | > 100 µM | 32.1 µM | > 100 µM | – | – | – | – | 10.9 µM | 2.17 µM | 2.88 µM | 3.6 µM | 3.2 µM | 12.4 µM | 2.96 µM | 3.86 µM | > 100 µM
CC1CC(=O)C(C(O)CC2CC(=O)N(c3ccccc3)C(=O)C2)C(C)C1 (centres undefined) | > 100 µM | > 100 µM | – | > 100 µM | > 100 µM | > 100 µM | > 100 µM | > 100 µM | > 100 µM | > 100 µM | > 100 µM | – | – | – | – | – | – | – | – | –
COC(=O)C(C(=O)C(=O)Nc1ccccc1OC)c1csc(-n2nc(-c3ccccc3)cc2-c2ccccc2)n1 (centres undefined) | > 100 µM | > 100 µM | – | > 100 µM | – | > 100 µM | > 100 µM | > 100 µM | > 100 µM | > 100 µM | > 100 µM | – | – | – | – | – | – | – | – | –
O=C(Nc1cc(C(F)(F)F)ccc1Cl)C(=O)C(C(=O)c1ccc2ccccc2c1)C1OC(=O)c2ccccc21 (centres undefined) | 8.11 µM | 28.1 µM | 22.5 µM | 37.3 µM | 6.94 µM | 37.3 µM | 9.16 µM | – | – | 46.4 µM | 52.9 µM | – | – | – | – | – | – | – | – | –
O=C1Nc2ccccc2SC1C1SC(=S)N(Cc2ccccc2)C1=O (centres undefined) | > 27.7 µM | 24.7 µM | 29.3 µM | 32.2 µM | 12.8 µM | 17.8 µM | > 36 µM | – | – | – | – | 4.21 µM | 4.21 µM | 13.7 µM | 3.46 µM | 3.79 µM | 3.38 µM | 3.57 µM | 23.6 µM | 97.4 µM
O=C(O)C1Cc2nc[nH]c2CN1 (centres undefined) | – | > 100 µM | > 100 µM | > 100 µM | > 100 µM | > 100 µM | > 100 µM | > 100 µM | > 100 µM | > 100 µM | > 100 µM | – | – | – | – | – | – | – | – | –
Cc1cc(N2CCN(C)CC2)nc(NC2CCCC(Nc3ccnc4cc(Cl)ccc34)C2)n1 (centres undefined) | 3.17 µM | 3.49 µM | 3.17 µM | 4.09 µM | 3.31 µM | 3.45 µM | 7.59 µM | – | – | – | – | 1.42 µM | 1.67 µM | 1.76 µM | 2.09 µM | 1.68 µM | 1.68 µM | 1.77 µM | 3.34 µM | 13.3 µM
O=C1C(Nc2ccccn2)=C(I)C(=O)c2ncccc21 | 2.75 µM | 4.36 µM | 2.31 µM | 3.77 µM | 2.69 µM | 3.68 µM | 4.66 µM | – | – | – | – | 1.25 µM | 1.65 µM | 1.11 µM | 1.63 µM | 1.37 µM | 1.9 µM | 0.702 µM | 1.25 µM | 4.6 µM
